From patent US9315522B2, “Antibacterial compounds” (JANSSEN SCIENCES IRELAND UC, priority 2012, dated 2016) come the findings set out here.

In series [1] the target is T1, S. aureus ATCC 29213 FabI (Staphylococcus aureus, UniProt Q6GI75).
T1 sequence (Q6GI75 1-256): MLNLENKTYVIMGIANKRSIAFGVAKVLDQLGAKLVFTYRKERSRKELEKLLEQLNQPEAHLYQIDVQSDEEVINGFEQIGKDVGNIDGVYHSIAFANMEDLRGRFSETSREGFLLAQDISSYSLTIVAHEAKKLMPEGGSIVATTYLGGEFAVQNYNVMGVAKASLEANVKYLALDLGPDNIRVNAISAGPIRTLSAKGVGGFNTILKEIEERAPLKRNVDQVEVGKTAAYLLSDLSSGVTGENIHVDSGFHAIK
Put plainly: Staphylococcus aureus FabI enzyme inhibition assay. The settings on record: read-out: FabI (300.235) IC50 (converted). It counts as biochemical. A digest of the protocol: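 S. aureus ATCC 29213 FabI (50 μg/ml) with 250 μM crotonoyl-CoA and 625 μM NADH in 100 mM NaADA pH 6.5, inhibitor 50–0.39 μM, 30 min at room temperature. Stopped by Tris pH 9.0 shift; NADH at 340 nm versus no-compound and no-enzyme controls; IC50 in μg/ml.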

The subject of series [2] is Staphylococcus aureus ATCC 29213. Put plainly: Antibacterial susceptibility testing, IC90 determination (STA). It counts as cell-based. As to conditions: Staphylococcus aureus, ATCC29213, Staphylococcus aureus ATCC 29213, broth microdilution, resazurin; read-out: STA (361.159) IC90. A digest of the protocol:
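S. aureus ATCC 29213 tested by broth microdilution in Mueller-Hinton broth, 5×10^5 CFU/ml, two-fold compound dilutions typically 63 to 0.49 μM, 1.25% DMSO, 16-20 h at 35° C. Growth read fluorometrically with resazurin (ex 540/em 590 nm); IC90 in μg/ml is 90% growth-inhibitory concentration.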
For orientation: In broth dilution the organism is exposed to a series of concentrations in liquid medium.

Series [3] in a line: In vivo pharmacokinetic and oral bioavailability in mouse. Details: species or system male Swiss mice. On the procedure:
The in vivo pharmacokinetics and oral bioavailability of the compound of the examples were/are investigated in male Swiss mice (fed) following single intravenous (i.v.) bolus and oral (p.o.) administration. For the i.v. and p.o. solution formulations, the compound was/is dissolved in a 20% HP-β-CD solution. The pH of the formulations was/is around pH 4. All i.v. formulations were isotonic.

[4] abbreviates: male, Swiss, plasma, iv, 2.5 mg/kg, 20% HP-β-cyclodextrin.
[5] abbreviates: male, Swiss, plasma, po, 10 mg/kg, 20% HP-β-cyclodextrin.

≈ marks a conversion by molar mass, not a printed value.

As to `O=C1CNCc2cc(/C=C/C(=O)N3CC4C=C(c5nccs5)CC4C3)cnc2N1` (centres unmarked) [compound 48], in series [1], the IC50 (commonly the concentration that gives 50% inhibition) was about 663 nM. For the same compound, in series [2], the IC90 – broadly, the concentration at which the effect reaches the 90% level – came to 0.24 µg/mL (≈ 0.589 µM). Also, in series [3] (i.v., 2.5 mg/kg, 20% HP-β-cyclodextrin), the Vdz worked out at 2.8 L/kg. Besides, in series [3] (setting [4]), the area under the curve AUC(0-inf) (commonly the area under the concentration-time curve extrapolated to infinity) came out at 1600 ng·h/mL and the C0 amounted to 4560 ng/mL. In addition, in series [3] (male, Swiss, plasma, iv, 2.5 mg/kg, 20% HP-β-cyclodextrin, read-out: Half life (t1/2) (converted)), the half-life was 72 min. In series [3] (male, Swiss, plasma, iv, 2.5 mg/kg, 20% HP-β-cyclodextrin, read-out: Plasma clearance Cl (converted)), the clearance is 26.7 mL/min/kg. Further, in series [3] (setting [5]), the area under the curve AUC(0-inf) is 2050 ng·h/mL; the Cmax – broadly, the peak of the concentration-time curve – was found to be 483 ng/mL; the time to peak (Tmax) – broadly, the time at which the peak concentration occurs – was found to be 1.3 h. The bioavailability (commonly the share of a dose that reaches the circulation, judged against a reference dose that is usually intravenous) in series [3] (male, Swiss, plasma, po, p.o. 10 mg/kg vs i.v. 2.5 mg/kg) was determined as 32%.
